Test results from patent US20140228214A1, “COMPOSITIONS COMPRISING A STREPTOMYCES-BASED BIOLOGICAL CONTROL AGENT AND A FUNGICIDE” (BAYER CROPSCIENCE LP, priority 2013, published 2014).
Like-named read-outs stand apart in the source and are kept apart here.

How the values were obtained:
[1] = tested on: Phytophthora infestans; format: in vivo
[2] = tested on: Sphaerotheca fuliginea; experiment: Sphaerotheca test (cucumbers)/preventive, evaluated 7 days after the inoculation; format: in vivo
[3] = tested on: Alternaria solani; experiment: Alternaria test (tomatoes)/preventive, evaluated 3 days after the inoculation; format: in vivo
[4] = tested on: Blumeria graminis fsp. hordei; experiment: Blumeria test (barley)/preventive, evaluated 7 days after the inoculation; format: in vivo
[5] = tested on: Puccinia triticina; experiment: Puccinia triticina-test (wheat)/preventive, evaluated 8 days after the inoculation; format: in vivo
[6] = tested on: Pyrenophora teres; experiment: Pyrenophora teres-test (barley)/preventive, evaluated 8 days after the inoculation; format: in vivo
[7] = tested on: Septoria tritici; experiment: Septoria tritici-test (wheat)/preventive, evaluated 21 days after the inoculation; format: in vivo
[8] = tested on: Venturia inaequalis; experiment: Venturia test (apples)/preventive, evaluated 10 days after the inoculation
Method: After the spray coating has dried on, the plants are inoculated with an aqueous conidia suspension of the causal agent of apple scab (Venturia inaequalis) and then remain for 1 day in an incubation cabinet at approximately 20° C. and a relative atmospheric humidity of 100%. The plants are then placed in a greenhouse at approximately 21° C. and a relative atmospheric humidity of approximately 90%.
The test is evaluated 10 days after the inoculation.

[9] = tested on: Botrytis cinerea; experiment: Botrytis test (beans)/preventive, size of the lesions 2 days after the inoculation; details: Table 17
Method: After the spray coating has dried on, 2 small pieces of agar covered with growth of Botrytis cinerea are placed on each leaf. The inoculated plants are placed in a darkened chamber at 20° C. and a relative atmospheric humidity of 100%.
2 days after the inoculation, the size of the lesions on the leaves is evaluated.

C#CCOc1ccc(CCNC(=O)C(OCC#C)c2ccc(Cl)cc2)cc1OC (stereo not shown) [F206, mandipropamid]
Efficacy in % found ([1]; Table 20, 0.25 ppm a.i.): 47% | Efficacy in % found ([2]; Table 28, 100 ppm a.i.): 13%

CO/C=C(/C(=O)OC)c1ccccc1Oc1cc(Oc2ccccc2C#N)ncn1 [F107, azoxystrobin]
Efficacy in % found ([3]; Table 13, 2 ppm a.i.): 41% | Efficacy in % found ([4]; Table 15, 31.25 ppm a.i.): 10% | Efficacy in % found ([5]; Table 22, 7.8125 ppm a.i.): 67% | Efficacy in % found ([6]; Table 25, 15.625 ppm a.i.): 60% | Efficacy in % found ([6]; Table 25, 31.25 ppm a.i.): 90% | Efficacy in % found ([7]; Table 26, 15.625 ppm a.i.): 13% | Efficacy in % found ([7]; Table 26, 31.25 ppm a.i.): 50% | Efficacy in % found ([2]; Table 28, 0.5 ppm a.i.): 37% | Efficacy in % found ([8]; Table 32, 0.5 ppm a.i.): 84%

Cc1nn(C)c(F)c1C(=O)Nc1ccccc1C(C)CC(C)C (stereo not shown) [F84, penflufen]
Efficacy in % found ([1]; Table 19, 100 ppm a.i.): 8% | Efficacy in % found ([5]; Table 22, 31.25 ppm a.i.): 67% | Efficacy in % found ([6]; Table 25, 62.5 ppm a.i.): 70% | Efficacy in % found ([6]; Table 25, 125 ppm a.i.): 60% | Efficacy in % found ([2]; Table 29, 0.5 ppm a.i.): 0% | Efficacy in % found ([8]; Table 31, 0.5 ppm a.i.): 0%

propamocarb hydrochloride [F220]
Efficacy in % found ([3]; Table 14, 250 ppm a.i.): 12% | Efficacy in % found ([1]; TABLE 17 (Phytophthora), 500 ppm a.i.): 7% | Efficacy in % found ([2]; Table 30, 500 ppm a.i.): 10% | Efficacy in % found ([8]; Table 31, 250 ppm a.i.): 0%

tebuconazole [F47]
Efficacy in % found ([3]; Table 12, 2 ppm a.i.): 35% | Efficacy in % found ([4]; Table 16, 31.25 ppm a.i.): 78% | Efficacy in % found ([1]; Table 19, 100 ppm a.i.): 15% | Efficacy in % found ([5]; Table 23, 31.25 ppm a.i.): 30% | Efficacy in % found ([5]; Table 23, 62.5 ppm a.i.): 60% | Efficacy in % found ([7]; Table 27, 125 ppm a.i.): 57% | Efficacy in % found ([8]; Table 31, 1 ppm a.i.): 0%

chlorothalonil [F155]
Efficacy in % found ([1]; Table 21, 20 ppm a.i.): 0% | Efficacy in % found ([6]; Table 24, 250 ppm a.i.): 50% | Efficacy in % found ([7]; Table 27, 125 ppm a.i.): 57% | Efficacy in % found ([8]; Table 33, 10 ppm a.i.): 4%

fenhexamid [F16]
Efficacy in % found ([3]; Table 14, 50 ppm a.i.): 50% | Efficacy in % found ([1]; TABLE 17 (Phytophthora), 100 ppm a.i.): 0% | Efficacy in % found ([2]; Table 30, 100 ppm a.i.): 0% | Efficacy in % found ([8]; Table 31, 25 ppm a.i.): 0%

mancozeb [F174]
Efficacy in % found ([1]; Table 21, 20 ppm a.i.): 0% | Efficacy in % found ([2]; Table 29, 20 ppm a.i.): 0% | Efficacy in % found ([8]; Table 33, 10 ppm a.i.): 0%

difenoconazole [F7]
Efficacy in % found ([3]; Table 12, 2 ppm a.i.): 30% | Efficacy in % found ([4]; Table 16, 62.5 ppm a.i.): 44% | Efficacy in % found ([4]; Table 16, 125 ppm a.i.): 67% | Efficacy in % found ([1]; Table 19, 100 ppm a.i.): 0% | Efficacy in % found ([5]; Table 23, 31.25 ppm a.i.): 30% | Efficacy in % found ([5]; Table 23, 62.5 ppm a.i.): 60% | Efficacy in % found ([2]; Table 29, 1 ppm a.i.): 0% | Efficacy in % found ([8]; Table 31, 1 ppm a.i.): 38%

spiroxamine [F46]
Efficacy in % found ([3]; Table 14, 50 ppm a.i.): 46% | Efficacy in % found ([4]; Table 16, 125 ppm a.i.): 11% | Efficacy in % found ([2]; Table 30, 100 ppm a.i.): 30% | Efficacy in % found ([8]; Table 31, 50 ppm a.i.): 0% | Efficacy in % found ([9]; 100 ppm a.i.): 14%

fosetyl-aluminium [F281]
Efficacy in % found ([3]; Table 13, 50 ppm a.i.): 15% | Efficacy in % found ([1]; Table 20, 50 ppm a.i.): 55% | Efficacy in % found ([2]; Table 28, 100 ppm a.i.): 13% | Efficacy in % found ([8]; Table 32, 50 ppm a.i.): 0%

propineb [F180]
Efficacy in % found ([1]; Table 21, 20 ppm a.i.): 8% | Efficacy in % found ([2]; Table 29, 20 ppm a.i.): 0% | Efficacy in % found ([8]; Table 33, 10 ppm a.i.): 81%

N#Cc1ccccc1NC(=O)c1snc(Cl)c1Cl [F187, isotianil]
Efficacy in % found ([3]; Table 14, 50 ppm a.i.): 18% | Efficacy in % found ([7]; Table 27, 250 ppm a.i.): 29% | Efficacy in % found ([7]; Table 27, 500 ppm a.i.): 29% | Efficacy in % found ([2]; Table 30, 100 ppm a.i.): 20% | Efficacy in % found ([8]; Table 31, 50 ppm a.i.): 0% | Efficacy in % found ([9]; 125 ppm a.i.): 40%

O=C(NCc1ncc(C(F)(F)F)cc1Cl)c1c(Cl)cccc1Cl [F143, fluopicolide]
Efficacy in % found ([1]; Table 20, 5 ppm a.i.): 21% | Efficacy in % found ([8]; Table 32, 50 ppm a.i.): 0%

prothioconazole [F41]
Efficacy in % found ([3]; Table 12, 2 ppm a.i.): 0% | Efficacy in % found ([1]; Table 19, 100 ppm a.i.): 45% | Efficacy in % found ([2]; Table 29, 1 ppm a.i.): 43% | Efficacy in % found ([8]; Table 31, 1 ppm a.i.): 0%

fludioxonil [F248]
Efficacy in % found ([2]; Table 30, 100 ppm a.i.): 30% | Efficacy in % found ([8]; Table 31, 50 ppm a.i.): 0% | Efficacy in % found ([9]; 2.5 ppm a.i.): 26%

fenamidone [F114]
Efficacy in % found ([3]; Table 13, 50 ppm a.i.): 62% | Efficacy in % found ([1]; Table 20, 1 ppm a.i.): 41% | Efficacy in % found ([2]; Table 28, 100 ppm a.i.): 21% | Efficacy in % found ([8]; Table 32, 50 ppm a.i.): 0%

Cn1cc(C(=O)Nc2ccccc2-c2cc(F)c(F)c(F)c2)c(C(F)F)n1 [F72, fluxapyroxad]
Efficacy in % found ([3]; Table 12, 0.5 ppm a.i.): 45% | Efficacy in % found ([4]; Table 15, 31.25 ppm a.i.): 0% | Efficacy in % found ([1]; Table 19, 100 ppm a.i.): 0% | Efficacy in % found ([5]; Table 22, 15.625 ppm a.i.): 22% | Efficacy in % found ([5]; Table 22, 31.25 ppm a.i.): 22% | Efficacy in % found ([6]; Table 25, 15.625 ppm a.i.): 80% | Efficacy in % found ([6]; Table 25, 31.25 ppm a.i.): 90% | Efficacy in % found ([7]; Table 26, 31.25 ppm a.i.): 13% | Efficacy in % found ([8]; Table 31, 0.25 ppm a.i.): 0%

COCC(=O)N(c1c(C)cccc1C)[C@H](C)C(=O)OC [F242, metalaxyl-M (mefenoxam)]
Efficacy in % found ([2]; Table 28, 100 ppm a.i.): 13% | Efficacy in % found ([8]; Table 32, 50 ppm a.i.): 0%

flutolanil [F71]
Efficacy in % found ([2]; Table 30, 100 ppm a.i.): 20% | Efficacy in % found ([8]; Table 31, 50 ppm a.i.): 0% | Efficacy in % found ([9]; 250 ppm a.i.): 30%

phosphorous acid and its salts [F298]
Efficacy in % found ([1]; Table 20, 500 ppm a.i.): 76% | Efficacy in % found ([8]; Table 32, 50 ppm a.i.): 0%
